Experimental data from PMC3298571 (Bioorganic & medicinal chemistry, 2012).
“Also recorded” adds a separate entry of the source. Marks after values point to notes of the source that are not given here.

Legend:
Male ICR mice [1] = conditions: mouse; cited from earlier work
Male ICR mice [2] = conditions: mouse; cited from earlier work; remark: listed apart in the source
Male ICR mice [3] = conditions: mouse; cited from earlier work; remark: listed apart in the source
Male ICR mice [4] = conditions: mouse; cited from earlier work; remark: listed apart in the source
CB2 receptor = conditions: read-out: Ki CB2; cited from earlier work
CB1 receptor [5] = conditions: read-out: Ki CB1; cited from earlier work
mice [6] = conditions: cited from earlier work
CB1 receptors = conditions: [35S]GTPγS binding assay; cited from earlier work
mice [7] = conditions: cited from earlier work; remark: listed apart in the source
CB1 receptor [8] = molecular target: CB1 receptor (Homo sapiens, UniProt P21554); assay: [35S]GTPγS binding assay; format: biochemical
mice [9] = assay: Rimonabant antagonism of tetrad effects in mice; format: in vivo, mouse; conditions: 3 mg/kg rimonabant, 30 mg/kg JWH-415

Sequence of CB1 receptor (Homo sapiens, UniProt P21554) (P21554 whole entry): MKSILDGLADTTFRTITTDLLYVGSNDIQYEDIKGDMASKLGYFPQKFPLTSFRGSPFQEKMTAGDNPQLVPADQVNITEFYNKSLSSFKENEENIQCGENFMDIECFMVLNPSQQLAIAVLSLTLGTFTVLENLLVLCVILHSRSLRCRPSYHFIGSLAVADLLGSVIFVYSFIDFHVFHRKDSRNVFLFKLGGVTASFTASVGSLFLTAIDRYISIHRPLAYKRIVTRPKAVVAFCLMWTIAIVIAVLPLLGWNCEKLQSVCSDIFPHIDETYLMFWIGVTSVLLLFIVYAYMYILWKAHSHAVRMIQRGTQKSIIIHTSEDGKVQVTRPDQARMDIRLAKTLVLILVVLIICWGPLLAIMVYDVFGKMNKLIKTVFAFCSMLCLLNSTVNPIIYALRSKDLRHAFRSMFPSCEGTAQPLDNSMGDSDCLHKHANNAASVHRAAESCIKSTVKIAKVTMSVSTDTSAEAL

For `CCCn1c(C)c(C(=O)c2cccc3ccccc23)c2ccccc21` [JWH-015, 1-propyl-2-methyl-3-(1-naphthoyl)indole], the “ED50 TF” value (Male ICR mice [1]) is listed as 84.7^e μmol / kg, the “ED50 RT” value (Male ICR mice [2]) is listed as 99.1^e μmol / kg and the “ED50 SA” value (Male ICR mice [3]) is listed as 18.7^e μmol / kg. The “ED50 RI” value (Male ICR mice [4]) was 87.2^e μmol / kg.

In the case of `CCCCCn1cc(C(=O)c2cccc3ccccc23)c2ccccc21` [JWH-018, 1-pentyl-3-(1-naphthoyl)indole], the “ED50 TF” value (Male ICR mice [1]) is listed as 0.09^e μmol / kg, the “ED50 RT” value (Male ICR mice [2]) is listed as 1.7^e μmol / kg and the Ki (CB2 receptor) is listed as 2.9 ± 2.6 nM. The Ki (CB1 receptor [5]) was 9 ± 5 nM and the “ED50 SA” value (Male ICR mice [3]) was 0.44^e μmol / kg.

For `C=C1CC[C@@H]2[C@@H](C1)c1ccc(C(C)(C)CCCCCC)cc1OC2(C)C` [JWH-104, deoxy-Δ^9(11)-THC-dimethylheptyl], the “Substitution for THC in drug discrimination” value (mice [6]) is given as “did not substitute for THC”, the Ki (CB1 receptor [5]) is given as 909 nM and the “Efficacy at CB1 receptors” value (CB1 receptors) is given as “low efficacy agonist”. The “Effect of rimonabant on cannabimimetic effects in the battery of mouse tests” value (mice [7]) was “blocked by rimonabant”.

In the case of `CCCCCn1c(C)c(C(=O)c2ccc(CC)c3ccccc23)c2ccccc21` [JWH-213], the Ki (CB2 receptor) is listed as 0.42 ± 0.05 nM and the Ki (CB1 receptor [5]) is listed as 1.5 ± 0.2 nM.

In the case of `CCCn1c(C)c(C(=O)c2ccc(F)c3ccccc23)c2ccccc21` [JWH-415, 2-Methyl-1-propyl-3-(4-fluoro-1-naphthoyl)indole], the “Efficacy at the CB1 receptor” value (CB1 receptor [8]) is reported as “low efficacy agonist” and the “Effect of rimonabant on tetrad effects” value (mice [9]) is reported as “blocked or partially blocked; also recorded: rimonabant-reversible activity”.

For `Cc1c(C(=O)c2cccc3ccccc23)c2cccc3c2n1[C@H](CN1CCOCC1)CO3` [WIN-55,212-2], the “ED50 TF” value (Male ICR mice [1]) is listed as 0.94^c μmol / kg and the “ED50 SA” value (Male ICR mice [3]) is listed as 0.23^c μmol / kg.
